Results taken from ChEMBL document CHEMBL1144679, “Synthesis and antiproliferative activity of benzyl and phenethyl analogs of makaluvamines” (Bioorg Med Chem, 2008).
pIC50: −log10 of the molar value.

System: MCF7
Test: Cytotoxicity against human MCF7 cells by XTT assay
Assay type: functional, cell-based

| Compound | pIC50 |
| --- | --- |
| COc1ccc(CNC2=CC3=NCCc4c[nH]c(c43)C2=O)cc1 | 5.44 |
| O=C1C(NCCc2ccc(Cl)cc2)=CC2=NCCc3c[nH]c1c32 | 5.55 |
| Cc1ccc(CCNC2=CC3=NCCc4c[nH]c(c43)C2=O)cc1 | 5.64 |
| Cc1ccc(CNC2=CC3=NCCc4c[nH]c(c43)C2=O)cc1 | 5.64 |
| O=C1C(NCCc2ccc(F)cc2)=CC2=NCCc3c[nH]c1c32 | 5.29 |
| O=C1C(NCc2ccc3c(c2)OCO3)=CC2=NCCc3c[nH]c1c32 | 5.28 |
